This is an account of results in patent publication US7087253B2 (AKH Arzneimittelkontor GmbH, priority 2002, dated 2006).

Each structure is given as a SMILES string.

The test system of this assay is patients with acute bronchitis. In words: double blind, randomized, placebo-controlled clinical study, 14-day treatment of acute bronchitis. It is filed as in vivo. Here is the method:
A parallel group of patients was treated for 14 days correspondingly with placebo or cefuroxime.

Consider `CO/N=C(\C(=O)N[C@@H]1C(=O)N2C(C(=O)O)=C(COC(N)=O)CS[C@H]12)c1ccco1` [cefuroxime], for which, for the setting “after 7±2 treatment days”, the “patients still with a pathological ausculatory finding” value is 26.3% and the “patients who experienced a worsening of the symptoms (terminations because of a worsening of the acute bronchitis)” value is listed as 7.6%. Moreover, under “after 14±2 treatment days”, the “patients with worsening of the acute bronchitis” value is 16.4% and the “patients with worsening, times as many as in the Eucalyptus oil/orange oil group” value is recorded as 10 times. For the same compound, the “patients still with a pathological ausculatory finding (pathological respiratory sounds)” value (after 14±2 days) was found to be 7.6%. Also, the “general state of health, Eucalyptus oil/orange oil group versus cefuroxime group” value (human, in vivo) is on record as “no differences worth mentioning”.
